Laboratory results from patent US20120108557A1, “FLUOROQUINOLONE DERIVATIVES FOR OPHTHALMIC APPLICATIONS” (ALCON RESEARCH, LTD., priority 2008, published 2012).

Legend:
Assay type in all cases: cell-based
[1] = tested on: Stenotrophomonas maltophilia; test: In vitro antimicrobial activity, agar dilution MIC
Method in brief: (§1)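 Agar dilution MIC; Mueller Hinton II agar, pH 7.2–7.4; 1:2 serial dilutions, ~10–12 concentrations. Inoculum 0.5 McFarland diluted 1:10 (~1.0×10^7 CFU/mL). 18–24 h, 32–35° C, non-CO2 or CO2 as growth requires. MIC = lowest concentration with no visible growth.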

Morganella morganii = test: In vitro antimicrobial activity, agar dilution MIC
Method in brief: as §1

MRSE = test: In vitro antimicrobial activity, agar dilution MIC
Method in brief: as §1

MRSA = test: In vitro antimicrobial activity, agar dilution MIC
Method in brief: as §1

MSSA = test: In vitro antimicrobial activity, agar dilution MIC; conditions: test organism 6, MSSA
Method in brief: as §1

Staphylococcus aureus = test: In vitro antimicrobial activity, agar dilution MIC
Method in brief: as §1

[2] = tested on: Staphylococcus haemolyticus; test: In vitro antimicrobial activity, agar dilution MIC
Method in brief: as §1

microorganisms = test: In vitro antimicrobial activity test, whole panel of test organisms; conditions: across the test organisms of TABLE 3
Protocol: The activity of the compounds of the present invention was evaluated using an in vitro assay. Microorganisms were prepared from growth on agar media, in broth culture, or from thawed cryopreserved cultures. Fungal cultures were filtered to remove mycelial elements.
Using Mueller Hinton II Broth, 0.9% saline or other appropriate media, a suspension of each culture was prepared and adjusted to a turbidity equivalent to that of a 0.5 McFarland Standard. (Cultures adjusted to the 0.5 McFarland Standard generally contain approximately 1.0×10^8 CFU/mL). The adjusted suspension for each culture was diluted 1:10 in the appropriate media so that the inoculum concentration approximates 1.0×10^7 CFU/mL.
The antimicrobial agent to be tested was weighed and diluted with a volume of sterile distilled water calculated to yield the necessary starting concentration. Serial 1:2 dilutions of the antimicrobial agent in sterile distilled water were prepared (approximately 10-12 test concentrations comprise a reasonable experimental range). A known amount of each antimicrobial dilution was combined with an aliquot of agar medium calculated to yield the desired final antimicrobial test concentration and dispensed onto plates.
The amount of antimicrobial agent to be weighed was determined using the following equation: […]
Antimicrobial stock solutions were prepared at concentrations 5-10 times the highest concentration to be tested (routinely 1024 μg/mL). […] The stock solution was diluted to appropriate concentration using sterile water to form a working solution. The working solution was diluted two-fold, in sterile water, until the desired concentration is obtained.
Mueller Hinton II agar was prepared as described by the manufacturer. Mueller Hinton II agar may be supplemented with 5% defibrinated sheep blood for testing streptococci. Agar was added to the serially diluted antimicrobial solution in each container. The solutions were mixed thoroughly and poured into petri dishes (about 25 mL/plate). The pH of the agar at 25° C. should be between 7.2 and 7.4. […]

[3] = test organism 41, Stenotrophomonas maltophilia
[4] = test organism 42, Stenotrophomonas maltophilia
[5] = test organism 35, Morganella morganii
[6] = test organism 36, Morganella morganii
[7] = test organism 1, Staphylococcus aureus
[8] = test organism 2, Staphylococcus aureus
[9] = test organism 12, Staphylococcus haemolyticus
[10] = test organism 13, Staphylococcus haemolyticus
[11] = test organism 14, Staphylococcus haemolyticus

Row | Structure (SMILES) | Minimal Inhibitory Concentration (MIC) [1, 3] | Minimal Inhibitory Concentration (MIC) [1, 4] | Minimal Inhibitory Concentration (MIC) (Morganella morganii; [5]) | Minimal Inhibitory Concentration (MIC) (Morganella morganii; [6]) | Minimal Inhibitory Concentration (MIC) (MRSE; test organism 9, MRSE) | Minimal Inhibitory Concentration (MIC) (MRSE; test organism 10, MRSE) | Minimal Inhibitory Concentration (MIC) (MRSE; test organism 11, MRSE) | Minimal Inhibitory Concentration (MIC) (MRSA; test organism 3, MRSA) | Minimal Inhibitory Concentration (MIC) (MRSA; test organism 4, MRSA) | Minimal Inhibitory Concentration (MIC) (MRSA; test organism 5, MRSA) | Minimal Inhibitory Concentration (MIC) (MSSA) | Minimal Inhibitory Concentration (MIC) (Staphylococcus aureus; [7]) | Minimal Inhibitory Concentration (MIC) (Staphylococcus aureus; [8]) | Minimal Inhibitory Concentration (MIC) [2, 9] | Minimal Inhibitory Concentration (MIC) [2, 10] | Minimal Inhibitory Concentration (MIC) [2, 11] | antimicrobial activity compared to moxifloxacin (in words) (microorganisms)
1 | Nc1c(F)c(N2CC3CCCNC3C2)c(F)c2c1c(=O)c(C(=O)O)cn2C1CC1 (racemic) [Compound 3 (racemic)] | 4 | ≦0.03 | 0.5 | 1 | >2 | >2 | >4 | >2 | 2 | >2 | >4 | ≦0.03 | 0.5 | 0.125 | 1 | >4 | 
2 | CN1CCCC2CN(c3c(F)cc4c(=O)c(C(=O)O)cn(C5CC5)c4c3F)CC21 (stereo not drawn) [Compound 1] | >4 | 0.25 | 0.5 | 2 | >2 | >2 | >4 | >2 | 4 | >2 | >4 | 0.06 | ≦0.25 | 0.25 | 2 | >4 | somewhat better antimicrobial activity against certain microorganisms compared to moxifloxacin, and performed comparably when taken as a whole
3 | Nc1c(F)c(N2CC3CCCNC3C2)c(F)c2c1c(=O)c(C(=O)O)cn2C1CC1 [Compound 3 (S,S)] | 2 | 0.125 | 0.125 | 1 | >2 | >2 | >4 | 1 | 2 | >2 | 4 | ≦0.03 | ≦0.25 | 0.125 | 1 | >4 | 
4 | CN1CCCC2CN(c3cc4c(cc3F)c(=O)c(C(=O)O)cn4C3CC3)CC21 (stereo not drawn) [Compound 2] | >4 | 2 | 1 | 2 | >2 | >2 | >4 | >2 | >4 | >2 | >4 | 0.125 | ≦0.25 | 1 | >4 | >4 | generally did not perform as well as moxifloxacin
